For 20 molecules, Kd results are on record in publication PMC8162404, “Proteomimetic surface fragments distinguish targets by function” (Chemical Science, 2020).

Common to all, as to assay: Pull-down assay with immobilized protein and LSM libraries
The target of one assay is T1, CaM (Bos taurus, UniProt P62157).
T1 construct: made in house; host or cells: E. coli BL21 (DE3)
It is filed as binding, bovine. The conditions noted are these: 1:2 stoichiometry assumed, read-out: Surface mapping KD (apparent). As for the experimental part: Pull-down assays with immobilized test proteins and foldameric LSM libraries were carried out. Proteins were equilibrated with LSM probes, and equilibrium bound fractions (FB) were determined from the unbound fractions measured by HPLC-MS methods. Hits were corrected with background binding of the resin. The protocol allowed all binding events to equilibrate irrespective of affinity, specificity, and binding kinetics. This was essential to judge overall druggability and promiscuity. Importantly, the concentration of protein and the total concentration of foldameric LSMs were equimolar, which minimized competition between the probes. This experimental setup approximated independent binding of individual library members. Results were visualized as heat maps of dissociation constants (Fig. 3).
Pull-down assay and data analysis
Pull-down assay. LSM sublibraries were screened separately as previously described.(2) Experiments were performed in the following buffers: (i) 20 mM pH 7.4 HEPES, 150 mM NaCl, 5 mM CaCl2 for CaM; (ii) 50 mM pH 7.4 HEPES, 150 mM NaCl, 1 mM TCEP, 1 mM CaCl2 for S100 proteins; (iii) 20 mM pH 7.4 HEPES, 150 mM NaCl, 1 mM TCEP for Gal-1 and (iv) 20 mM pH 7.4 HEPES, 150 mM NaCl for RecQ-WH. Assays were performed in paper filter spin cups (Thermo Scientific) with sample volumes of 100 µl. Hexahistidine-tagged proteins were immobilized on previously washed Co-NTA resin (TALON, Takara Bio USA, Inc., […]
LSM sublibrary was added, in which each of the 64 library members were used at a concentration of 1 µM. Samples were incubated at room temperature for 30 min with shaking at 100 rpm. Then, samples were centrifuged at 1000 rpm for 2 min and washed with 100 µl pull-down buffer to remove unbound compounds.
The control experiments were performed using the same compounds and the resin but without the immobilized protein. In case of competitive assays, competitor peptides were added to LSM sublibrary samples in 200 µM final concentration. In the case of Gal-1, lactose (competitor) was used in a concentration of 10 mM. Experiments were performed at least twice. Mean […]
LC-MS methods and parameters. HPLC/ESI-MS analysis was used to characterize the samples from the pull-down assay. LC-MS analysis was performed with a Thermo Scientific Dionex UltiMate 3000 HPLC system interfaced to an LTQ ion trap mass spectrometer (Thermo Electron Corp., San Jose, CA, USA). Samples were injected onto an Aeris Widepore XB-C18 (250 x 4.6 mm) analytical HPLC column using gradient elution 5-80 % solution B during 25 minutes. For pull-down samples, eluent composition was 0.1% acetic acid in distilled water (Solution A) and 0.1% acetic acid in acetonitrile (solution B). Mass spectra were acquired in full scan mode from 200 to 2000 m/z range. For overlapping peaks, selective reaction monitoring (SRM) was […]
MS data analysis. Thermo Xcalibur 2.2 software was used for peak identification and integration. The majority of the foldameric fragments could be resolved independently via HPLC-MS/MS measurements based on molecular weight, MS fragmentation pattern and retention time. Peaks of some foldamers with β3-hIle or β3-hLeu in position R2 could not be resolved, these were integrated and averaged. In the processing method, each sample component was associated to a chromatographic peak based on previously identified mass (m/z) and retention time (ref (2) and Table S7-10). Using ICIS peak detection algorithm, the general detection and integration criteria were: smoothing points: 5, baseline window: 80, area noise factor: 5, peak noise factor: 10. Using these processing setups, all raw data files were reprocessed together and analyzed. Errors in peak identification during the automatic processing were corrected manually.
Calculation of the discussed parameters
1. Bound fractions (FB.) were calculated from the HPLC-MS intensity loss of the LSM probes compared to the control where no protein was immobilized to the resin: […]

A further assay has as its target T2, S100B (Homo sapiens, UniProt P04271).
T2 construct: made in house; host or cells: Escherichia coli BL21(DE3)
T2 sequence (P04271 1-92): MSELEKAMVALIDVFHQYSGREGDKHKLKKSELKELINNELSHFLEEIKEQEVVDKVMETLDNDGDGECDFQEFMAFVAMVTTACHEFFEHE
It is filed as binding. Particulars: 1:1 binding assumed, read-out: Surface mapping KD (apparent). The method in brief: (§1)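 Buffers were HEPES pH 7.4 with 150 mM NaCl, plus 1 mM TCEP and 1 mM CaCl2 (50 mM HEPES) for S100A4 and S100B, 1 mM TCEP for Gal-1, and no additive for RecQ-WH. Immobilized protein at 64 µM was equilibrated 30 min with the LSM sublibrary, and unbound probes were measured by LC-MS.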

In the next assay the target is T3, Gal-1 (Homo sapiens, UniProt P09382).
T3 construct: made in house; host or cells: E. coli BL21(DE3)
Type of assay: binding. Particulars: H14 library; 1:1 binding assumed; read-out: Surface mapping KD (apparent). Summed up: as §1

The structures appear in SMILES notation. Where two headings read alike, the source gives them in different places.

T3 sequence (P09382 whole entry): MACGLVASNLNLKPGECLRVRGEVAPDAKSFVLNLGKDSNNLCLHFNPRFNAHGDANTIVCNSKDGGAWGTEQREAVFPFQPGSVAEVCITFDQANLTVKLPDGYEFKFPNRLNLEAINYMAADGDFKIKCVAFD

For the molecule `C[C@@H](O)[C@@H](CC(=O)N[C@H]1CCC[C@@H]1C(=O)N[C@H]1CCC[C@@H]1C(=O)N[C@H](CC(=O)N[C@H]1CCC[C@@H]1C(=O)N[C@H]1CCC[C@@H]1C(N)=O)Cc1ccccc1)NC(=O)[C@H]1CCC[C@@H]1NC(=O)[C@H]1CCC[C@@H]1N` [H12 TF], the Kd at CaM (H12 library) was 90 µM; at S100B (H12 library) it was 185 µM.

Take `NCCCC[C@@H](CC(=O)N[C@H]1CCCC[C@@H]1C(=O)N[C@H]1CCCC[C@@H]1C(=O)N[C@@H](CCC(N)=O)CC(=O)N[C@H]1CCCC[C@@H]1C(N)=O)NC(=O)[C@H]1CCCC[C@@H]1N` [H14 KQ]: the Kd at CaM (H14 library) turned out to be 307 µM; at S100B (H14 library), 173 µM.

On to `CC[C@H](C)[C@@H](CC(=O)N[C@H]1CCC[C@@H]1C(=O)N[C@H]1CCC[C@@H]1C(N)=O)NC(=O)[C@H]1CCC[C@@H]1NC(=O)[C@H]1CCC[C@@H]1NC(=O)C[C@H](CO)NC(=O)[C@H]1CCC[C@@H]1NC(=O)[C@H]1CCC[C@@H]1N` [H12 SI], for which the Kd at CaM (H12 library) was 252 µM; on S100B (H12 library), 419 µM.

Take `NC(=O)C[C@@H](CC(=O)N[C@H]1CCC[C@@H]1C(=O)N[C@H]1CCC[C@@H]1C(=O)N[C@H](CC(=O)N[C@H]1CCC[C@@H]1C(=O)N[C@H]1CCC[C@@H]1C(N)=O)Cc1ccccc1)NC(=O)[C@H]1CCC[C@@H]1NC(=O)[C@H]1CCC[C@@H]1N` [H12 NF]: the Kd was 162 µM at CaM (H12 library) and 368 µM on S100B (H12 library).

In the case of `CC(C)C[C@@H](CC(=O)N[C@H]1CCC[C@@H]1C(=O)N[C@H]1CCC[C@@H]1C(N)=O)NC(=O)[C@H]1CCC[C@@H]1NC(=O)[C@H]1CCC[C@@H]1NC(=O)C[C@H](CO)NC(=O)[C@H]1CCC[C@@H]1NC(=O)[C@H]1CCC[C@@H]1N` [H12 SL], the Kd is 252 µM on CaM (H12 library) and 419 µM at S100B (H12 library).

As to `C[C@@H](O)[C@@H](CC(=O)N[C@H]1CCC[C@@H]1C(=O)N[C@H]1CCC[C@@H]1C(=O)N[C@@H](CCCNC(=N)N)CC(=O)N[C@H]1CCC[C@@H]1C(=O)N[C@H]1CCC[C@@H]1C(N)=O)NC(=O)[C@H]1CCC[C@@H]1NC(=O)[C@H]1CCC[C@@H]1N` [H12 TR], the Kd on CaM (H12 library) stood at 282 µM; on S100B (H12 library) it was 286 µM.

With `NC(=O)[C@H]1CCC[C@@H]1NC(=O)[C@H]1CCC[C@@H]1NC(=O)C[C@H](Cc1ccccc1)NC(=O)[C@H]1CCC[C@@H]1NC(=O)[C@H]1CCC[C@@H]1NC(=O)C[C@H](CO)NC(=O)[C@H]1CCC[C@@H]1NC(=O)[C@H]1CCC[C@@H]1N` [H12 SF], the values for the Kd on CaM (H12 library) and on S100B (H12 library) were 153 µM and 189 µM, respectively.

On to `CC[C@H](C)[C@@H](CC(=O)N[C@H]1CCC[C@@H]1C(=O)N[C@H]1CCC[C@@H]1C(N)=O)NC(=O)[C@H]1CCC[C@@H]1NC(=O)[C@H]1CCC[C@@H]1NC(=O)C[C@H](CCC(N)=O)NC(=O)[C@H]1CCC[C@@H]1NC(=O)[C@H]1CCC[C@@H]1N` [H12 QI], for which the Kd on CaM (H12 library) was found to be 263 µM.

As to `NC(=O)CC[C@@H](CC(=O)N[C@H]1CCC[C@@H]1C(=O)N[C@H]1CCC[C@@H]1C(=O)N[C@H](CC(=O)N[C@H]1CCC[C@@H]1C(=O)N[C@H]1CCC[C@@H]1C(N)=O)Cc1ccccc1)NC(=O)[C@H]1CCC[C@@H]1NC(=O)[C@H]1CCC[C@@H]1N` [H12 QF], the Kd at CaM (H12 library) was 181 µM; at S100B (H12 library), 461 µM.

As to `NC(=O)C[C@@H](CC(=O)N[C@H]1CCC[C@@H]1C(=O)N[C@H]1CCC[C@@H]1C(N)=O)NC(=O)[C@H]1CCC[C@@H]1NC(=O)[C@H]1CCC[C@@H]1NC(=O)C[C@H](CO)NC(=O)[C@H]1CCC[C@@H]1NC(=O)[C@H]1CCC[C@@H]1N` [H12 SN], the Kd at CaM (H12 library) stood at 493 µM.

Regarding `NC(=O)CC[C@@H](CC(=O)N[C@H]1CCC[C@@H]1C(=O)N[C@H]1CCC[C@@H]1C(=O)N[C@@H](CC(=O)O)CC(=O)N[C@H]1CCC[C@@H]1C(=O)N[C@H]1CCC[C@@H]1C(N)=O)NC(=O)[C@H]1CCC[C@@H]1NC(=O)[C@H]1CCC[C@@H]1N` [H12 QD], on CaM (H12 library), the Kd turned out to be 433 µM.

For `NC(=O)[C@H]1CCC[C@@H]1NC(=O)[C@H]1CCC[C@@H]1NC(=O)C[C@H](CC(=O)O)NC(=O)[C@H]1CCC[C@@H]1NC(=O)[C@H]1CCC[C@@H]1NC(=O)C[C@H](CO)NC(=O)[C@H]1CCC[C@@H]1NC(=O)[C@H]1CCC[C@@H]1N` [H12 SD], the Kd on CaM (H12 library) was found to be 441 µM.

With `CC(C)C[C@@H](CC(=O)N[C@H]1CCC[C@@H]1C(=O)N[C@H]1CCC[C@@H]1C(N)=O)NC(=O)[C@H]1CCC[C@@H]1NC(=O)[C@H]1CCC[C@@H]1NC(=O)C[C@H](CCC(N)=O)NC(=O)[C@H]1CCC[C@@H]1NC(=O)[C@H]1CCC[C@@H]1N` [H12 QL], the Kd at CaM (H12 library) was 263 µM.

On to `C[C@@H](O)[C@@H](CC(=O)N[C@H]1CCC[C@@H]1C(=O)N[C@H]1CCC[C@@H]1C(=O)N[C@H](CC(=O)N[C@H]1CCC[C@@H]1C(=O)N[C@H]1CCC[C@@H]1C(N)=O)Cc1c[nH]c2ccccc12)NC(=O)[C@H]1CCC[C@@H]1NC(=O)[C@H]1CCC[C@@H]1N` [H12 TW], for which the results for the Kd at CaM (H12 library) and on S100B (H12 library) were 25 µM and 113 µM, respectively.

As for `NC(=O)[C@H]1CCCC[C@@H]1NC(=O)C[C@H](CC(=O)O)NC(=O)[C@H]1CCCC[C@@H]1NC(=O)[C@H]1CCCC[C@@H]1NC(=O)C[C@H](CO)NC(=O)[C@H]1CCCC[C@@H]1N` [H14 SD], the values for the Kd at CaM (H14 library) and on Gal-1 were 225 µM and 432 µM, respectively.

For the molecule `CSCC[C@@H](CC(=O)N[C@H]1CCC[C@@H]1C(=O)N[C@H]1CCC[C@@H]1C(N)=O)NC(=O)[C@H]1CCC[C@@H]1NC(=O)[C@H]1CCC[C@@H]1NC(=O)C[C@@H](NC(=O)[C@H]1CCC[C@@H]1NC(=O)[C@H]1CCC[C@@H]1N)[C@@H](C)O` [H12 TM], the Kd on CaM (H12 library) was 200 µM.

Turning to `NC(=O)CC[C@@H](CC(=O)N[C@H]1CCC[C@@H]1C(=O)N[C@H]1CCC[C@@H]1C(=O)N[C@@H](CCC(=O)O)CC(=O)N[C@H]1CCC[C@@H]1C(=O)N[C@H]1CCC[C@@H]1C(N)=O)NC(=O)[C@H]1CCC[C@@H]1NC(=O)[C@H]1CCC[C@@H]1N` [H12 QE], at CaM (H12 library), the Kd is 474 µM.

Take `C[C@@H](O)[C@@H](CC(=O)N[C@H]1CCC[C@@H]1C(=O)N[C@H]1CCC[C@@H]1C(N)=O)NC(=O)[C@H]1CCC[C@@H]1NC(=O)[C@H]1CCC[C@@H]1NC(=O)C[C@H](CCC(N)=O)NC(=O)[C@H]1CCC[C@@H]1NC(=O)[C@H]1CCC[C@@H]1N` [H12 QT]: at CaM (H12 library), the Kd was found to be 447 µM.

`C[C@@H](CC(=O)N[C@H]1CCC[C@@H]1C(=O)N[C@H]1CCC[C@@H]1C(N)=O)NC(=O)[C@H]1CCC[C@@H]1NC(=O)[C@H]1CCC[C@@H]1NC(=O)C[C@H](CO)NC(=O)[C@H]1CCC[C@@H]1NC(=O)[C@H]1CCC[C@@H]1N` [H12 SA]: the Kd at CaM (H12 library) came out at 482 µM.

On to `NC(=O)CC[C@@H](CC(=O)N[C@H]1CCC[C@@H]1C(=O)N[C@H]1CCC[C@@H]1C(=O)N[C@H](CC(=O)N[C@H]1CCC[C@@H]1C(=O)N[C@H]1CCC[C@@H]1C(N)=O)Cc1ccc(O)cc1)NC(=O)[C@H]1CCC[C@@H]1NC(=O)[C@H]1CCC[C@@H]1N` [H12 QY], for which the Kd at CaM (H12 library) is 403 µM.
